Tests used:
Experiment in all cases: biochemical
Set-up in all cases: species or system HEK293/K-562/placenta mixed human extract; Kinobeads chemoproteomic competition binding, quantified by TMT LC-MS/MS, dose response up to 20 uM
[1] = target: GAK (Homo sapiens, UniProt O14976)
[2] = target: NEK2 (Homo sapiens, UniProt P51955)
[3] = target: LATS2 (Homo sapiens, UniProt Q9NRM7)
[4] = target: MAPK9 (Homo sapiens, UniProt P45984)
[5] = target: FN3KRP (Homo sapiens, UniProt Q9HA64)
[6] = target: CSNK2B (Homo sapiens, UniProt P67870)
[7] = target: HCK (Homo sapiens, UniProt P08631)
[8] = target: PDXK (Homo sapiens, UniProt O00764)
[9] = target: CAMK2D (Homo sapiens, UniProt Q13557)
[10] = target: AKT2 (Homo sapiens, UniProt P31751)
[11] = target: MAP4K1 (Homo sapiens, UniProt Q92918)
[12] = target: CSNK2A2 (Homo sapiens, UniProt P19784)
[13] = target: DSTYK (Homo sapiens, UniProt Q6XUX3)
[14] = target: PIK3C3 (Homo sapiens, UniProt Q8NEB9)
[15] = target: ACVR1 (Homo sapiens, UniProt Q04771)
[16] = target: STK4 (Homo sapiens, UniProt Q13043)
[17] = target: MARK1 (Homo sapiens, UniProt Q9P0L2)
[18] = target: MAPKAPK5 (Homo sapiens, UniProt Q8IW41)
[19] = target: IKBKG (Homo sapiens, UniProt Q9Y6K9)
[20] = target: PIK3R4 (Homo sapiens, UniProt Q99570)
[21] = target: MAP2K1 (Homo sapiens, UniProt Q02750)

Measured: IC50

NEK2, sequence (P51955 whole entry): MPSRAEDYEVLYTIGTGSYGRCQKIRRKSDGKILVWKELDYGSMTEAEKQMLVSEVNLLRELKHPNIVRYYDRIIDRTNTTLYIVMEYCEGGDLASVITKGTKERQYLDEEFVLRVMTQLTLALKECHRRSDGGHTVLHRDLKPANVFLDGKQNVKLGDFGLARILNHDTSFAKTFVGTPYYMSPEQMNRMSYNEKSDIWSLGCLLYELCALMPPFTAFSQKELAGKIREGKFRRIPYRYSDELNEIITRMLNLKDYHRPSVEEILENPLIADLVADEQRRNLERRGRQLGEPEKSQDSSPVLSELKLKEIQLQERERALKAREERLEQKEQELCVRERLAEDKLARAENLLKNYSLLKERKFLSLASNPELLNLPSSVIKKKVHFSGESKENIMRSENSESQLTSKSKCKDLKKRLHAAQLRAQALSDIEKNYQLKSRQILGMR
PIK3R4, sequence (Q99570 whole entry): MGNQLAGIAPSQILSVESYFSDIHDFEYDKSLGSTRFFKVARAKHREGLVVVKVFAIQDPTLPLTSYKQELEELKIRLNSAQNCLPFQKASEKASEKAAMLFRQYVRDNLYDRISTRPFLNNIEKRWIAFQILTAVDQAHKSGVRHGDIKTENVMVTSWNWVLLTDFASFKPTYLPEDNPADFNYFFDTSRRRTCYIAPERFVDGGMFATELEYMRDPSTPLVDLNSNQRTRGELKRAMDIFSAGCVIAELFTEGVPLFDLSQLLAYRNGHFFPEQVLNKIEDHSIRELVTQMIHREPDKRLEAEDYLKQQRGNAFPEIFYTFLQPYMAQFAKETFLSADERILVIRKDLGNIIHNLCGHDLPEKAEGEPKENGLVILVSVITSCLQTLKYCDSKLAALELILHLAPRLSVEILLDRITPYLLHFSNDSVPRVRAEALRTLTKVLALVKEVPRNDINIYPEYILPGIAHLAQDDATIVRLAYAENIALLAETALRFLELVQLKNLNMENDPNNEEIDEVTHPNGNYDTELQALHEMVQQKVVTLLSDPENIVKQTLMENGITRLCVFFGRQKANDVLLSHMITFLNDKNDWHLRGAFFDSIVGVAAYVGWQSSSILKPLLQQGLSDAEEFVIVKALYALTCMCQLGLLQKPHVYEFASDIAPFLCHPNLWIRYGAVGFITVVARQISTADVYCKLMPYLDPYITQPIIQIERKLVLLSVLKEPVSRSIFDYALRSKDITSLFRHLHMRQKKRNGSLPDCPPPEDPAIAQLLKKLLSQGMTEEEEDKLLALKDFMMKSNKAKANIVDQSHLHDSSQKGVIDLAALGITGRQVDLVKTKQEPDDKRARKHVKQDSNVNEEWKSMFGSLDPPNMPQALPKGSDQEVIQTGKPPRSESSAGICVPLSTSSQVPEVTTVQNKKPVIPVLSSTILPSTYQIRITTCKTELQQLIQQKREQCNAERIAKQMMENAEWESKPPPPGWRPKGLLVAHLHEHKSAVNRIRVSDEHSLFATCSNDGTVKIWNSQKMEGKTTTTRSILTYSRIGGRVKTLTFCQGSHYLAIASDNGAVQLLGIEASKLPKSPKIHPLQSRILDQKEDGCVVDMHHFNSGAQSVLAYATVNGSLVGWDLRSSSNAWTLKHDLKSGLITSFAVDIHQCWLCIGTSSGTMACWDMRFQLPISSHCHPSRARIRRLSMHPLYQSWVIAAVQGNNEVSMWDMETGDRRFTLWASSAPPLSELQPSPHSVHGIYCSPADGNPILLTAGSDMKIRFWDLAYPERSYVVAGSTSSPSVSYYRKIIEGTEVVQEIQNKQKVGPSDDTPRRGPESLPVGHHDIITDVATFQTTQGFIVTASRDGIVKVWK
MARK1, sequence (Q9P0L2 whole entry): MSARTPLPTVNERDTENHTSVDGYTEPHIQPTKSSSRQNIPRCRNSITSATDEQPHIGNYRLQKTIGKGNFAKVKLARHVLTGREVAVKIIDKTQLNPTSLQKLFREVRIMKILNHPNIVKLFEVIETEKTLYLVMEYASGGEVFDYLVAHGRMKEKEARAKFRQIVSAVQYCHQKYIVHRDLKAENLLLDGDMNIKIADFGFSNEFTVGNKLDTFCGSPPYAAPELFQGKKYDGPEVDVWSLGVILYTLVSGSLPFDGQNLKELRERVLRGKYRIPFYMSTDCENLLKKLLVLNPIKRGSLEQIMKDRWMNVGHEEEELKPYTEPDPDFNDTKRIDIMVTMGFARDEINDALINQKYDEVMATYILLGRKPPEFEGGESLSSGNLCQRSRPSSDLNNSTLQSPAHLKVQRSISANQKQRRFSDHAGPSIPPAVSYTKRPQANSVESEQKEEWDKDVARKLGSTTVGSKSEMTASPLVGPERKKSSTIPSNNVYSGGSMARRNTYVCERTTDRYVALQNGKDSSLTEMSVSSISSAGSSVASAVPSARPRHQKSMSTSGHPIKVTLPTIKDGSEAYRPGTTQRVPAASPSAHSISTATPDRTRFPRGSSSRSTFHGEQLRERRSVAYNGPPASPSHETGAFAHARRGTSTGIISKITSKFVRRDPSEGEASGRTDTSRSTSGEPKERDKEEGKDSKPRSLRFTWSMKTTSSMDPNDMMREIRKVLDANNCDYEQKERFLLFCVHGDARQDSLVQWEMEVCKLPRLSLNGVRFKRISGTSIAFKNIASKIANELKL
MAPKAPK5, sequence (Q8IW41 whole entry): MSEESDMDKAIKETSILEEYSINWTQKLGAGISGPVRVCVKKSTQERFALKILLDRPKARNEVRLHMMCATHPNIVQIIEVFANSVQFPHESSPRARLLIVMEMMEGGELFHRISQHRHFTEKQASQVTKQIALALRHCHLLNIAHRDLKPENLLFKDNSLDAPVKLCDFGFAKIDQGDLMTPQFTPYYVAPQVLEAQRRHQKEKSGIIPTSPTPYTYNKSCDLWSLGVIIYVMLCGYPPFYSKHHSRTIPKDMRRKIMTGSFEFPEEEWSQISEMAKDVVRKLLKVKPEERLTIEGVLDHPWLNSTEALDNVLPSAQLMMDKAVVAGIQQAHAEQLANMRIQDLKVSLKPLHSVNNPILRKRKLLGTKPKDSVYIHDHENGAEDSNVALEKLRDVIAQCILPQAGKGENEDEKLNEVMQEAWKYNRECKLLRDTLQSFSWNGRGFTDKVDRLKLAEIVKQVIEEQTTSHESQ
AKT2, sequence (P31751 whole entry): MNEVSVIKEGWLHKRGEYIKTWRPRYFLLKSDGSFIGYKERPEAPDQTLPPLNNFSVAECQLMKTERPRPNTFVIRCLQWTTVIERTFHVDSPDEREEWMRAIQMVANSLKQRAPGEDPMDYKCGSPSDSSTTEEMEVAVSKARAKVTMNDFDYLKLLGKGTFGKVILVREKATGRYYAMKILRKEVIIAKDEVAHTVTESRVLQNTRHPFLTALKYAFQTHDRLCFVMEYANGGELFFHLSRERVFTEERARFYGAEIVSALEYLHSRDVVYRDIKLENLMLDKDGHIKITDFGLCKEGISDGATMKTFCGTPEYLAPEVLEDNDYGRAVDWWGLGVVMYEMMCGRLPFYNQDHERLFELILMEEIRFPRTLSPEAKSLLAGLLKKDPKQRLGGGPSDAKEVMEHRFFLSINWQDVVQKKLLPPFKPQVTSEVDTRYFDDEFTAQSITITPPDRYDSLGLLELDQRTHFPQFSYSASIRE
PIK3C3, sequence (Q8NEB9 whole entry): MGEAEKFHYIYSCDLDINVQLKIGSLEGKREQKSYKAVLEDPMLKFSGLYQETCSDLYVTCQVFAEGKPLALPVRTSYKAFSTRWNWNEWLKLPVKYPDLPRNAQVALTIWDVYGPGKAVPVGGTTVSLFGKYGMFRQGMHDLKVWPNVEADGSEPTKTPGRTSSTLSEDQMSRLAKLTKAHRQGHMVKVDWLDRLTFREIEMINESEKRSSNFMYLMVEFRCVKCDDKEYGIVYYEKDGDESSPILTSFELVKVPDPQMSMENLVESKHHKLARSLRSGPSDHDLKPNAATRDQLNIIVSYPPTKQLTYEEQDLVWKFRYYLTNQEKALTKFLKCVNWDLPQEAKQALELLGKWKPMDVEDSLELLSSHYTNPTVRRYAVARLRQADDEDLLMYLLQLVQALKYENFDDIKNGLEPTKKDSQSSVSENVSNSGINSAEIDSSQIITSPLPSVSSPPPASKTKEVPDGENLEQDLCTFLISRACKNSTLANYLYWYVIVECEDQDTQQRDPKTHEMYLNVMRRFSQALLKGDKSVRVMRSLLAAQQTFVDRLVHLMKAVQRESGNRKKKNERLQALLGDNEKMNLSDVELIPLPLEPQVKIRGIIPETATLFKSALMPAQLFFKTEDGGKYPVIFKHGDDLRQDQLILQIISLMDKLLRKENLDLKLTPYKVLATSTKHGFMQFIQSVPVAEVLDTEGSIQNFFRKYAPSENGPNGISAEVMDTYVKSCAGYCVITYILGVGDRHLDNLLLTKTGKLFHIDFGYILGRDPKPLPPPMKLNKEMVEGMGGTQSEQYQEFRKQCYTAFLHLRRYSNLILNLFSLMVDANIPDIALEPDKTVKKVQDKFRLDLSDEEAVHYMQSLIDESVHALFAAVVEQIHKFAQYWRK
CSNK2B, sequence (P67870 whole entry): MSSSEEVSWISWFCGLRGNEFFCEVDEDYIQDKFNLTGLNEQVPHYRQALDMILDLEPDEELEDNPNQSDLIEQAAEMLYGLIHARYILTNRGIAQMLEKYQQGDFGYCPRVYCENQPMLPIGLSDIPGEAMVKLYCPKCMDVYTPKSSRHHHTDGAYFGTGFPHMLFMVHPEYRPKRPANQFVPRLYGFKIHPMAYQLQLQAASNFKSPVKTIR
FN3KRP, sequence (Q9HA64 whole entry): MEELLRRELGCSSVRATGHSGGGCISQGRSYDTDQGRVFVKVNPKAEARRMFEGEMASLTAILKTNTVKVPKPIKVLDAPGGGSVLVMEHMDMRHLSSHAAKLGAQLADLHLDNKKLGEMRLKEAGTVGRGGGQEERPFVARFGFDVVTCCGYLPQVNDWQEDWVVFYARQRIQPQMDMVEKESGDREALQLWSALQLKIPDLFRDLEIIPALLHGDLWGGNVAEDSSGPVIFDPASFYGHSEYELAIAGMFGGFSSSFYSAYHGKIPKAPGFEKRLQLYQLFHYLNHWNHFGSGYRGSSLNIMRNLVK

COc1ccccc1-c1n[nH]c2nc(N[C@H]3CC[C@H](NS(=O)(=O)CCC(F)(F)F)CC3)nc(OC)c12 [compound 31, 3,3,3-Trifluoro-N-(trans-4-((4-methoxy-3-(2-methoxyphenyl)-1H-pyrazolo[3,4-d]pyrimidin-6-yl)amino)cyclohexyl)propane-1-sulfonamide]
3 µM: [18]
9.9 µM: [1]
≥ 20 µM: all other assays above

From publication PMC6407917, “Identification of GSK3186899/DDD853651 as a Preclinical Development Candidate for the Treatment of Visceral Leishmaniasis” (Journal of Medicinal Chemistry, 2018)
